Experimental data taken from patent US20140005163A1 (NOVARTIS AG, priority 2010, published 2014).

Assays:
mTOR = target: T1, mTOR (Homo sapiens, UniProt P42345); assay: Biochemical assay for m-TOR by TR-FRET; conditions: 8 μM ATP, 400 nM GFP-4EBP1, 0.5 nM mTOR
T1 construct: purchased Invitrogen Corporation (Carlsbad/CA, USA) PV4753
In short: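 TR-FRET read-out: Tb-labelled anti-p4EBP1 pThr46 antibody (0.5 nM), added in EDTA to stop the reaction, detects phosphorylated GFP-4EBP1 after 15 min. Kinase step used 0.5 nM mTOR, 400 nM substrate, 8 μM ATP, MnCl2-containing HEPES buffer pH 7.5, room temperature.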

[1] = test system: S6 Ribosomal Protein phosphorylation Ser235/236 in TSC1 null mouse embryo fibroblast (MEF) cells; assay: Reverse protein array assay, S6 Ribosomal Protein phosphorylation Ser235/236 in TSC1 null MEF cells; type: cell-based; conditions: 1 h, pS6 ribosomal protein Ser235/236, 60 minutes incubation, read-out: p-S6 IC50
In short: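 TSC1−/− MEFs, seeded and held ≥20 h at 37 °C/5% CO2, were exposed to 8-step serial compound dilutions (0.02% DMSO final; DMSO vehicle control) for 60 min at 37 °C. Cells were then lysed on ice for 10 min and lysates spotted onto reverse protein array chips.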

T1 sequence (P42345 1360-2549 limits assumed): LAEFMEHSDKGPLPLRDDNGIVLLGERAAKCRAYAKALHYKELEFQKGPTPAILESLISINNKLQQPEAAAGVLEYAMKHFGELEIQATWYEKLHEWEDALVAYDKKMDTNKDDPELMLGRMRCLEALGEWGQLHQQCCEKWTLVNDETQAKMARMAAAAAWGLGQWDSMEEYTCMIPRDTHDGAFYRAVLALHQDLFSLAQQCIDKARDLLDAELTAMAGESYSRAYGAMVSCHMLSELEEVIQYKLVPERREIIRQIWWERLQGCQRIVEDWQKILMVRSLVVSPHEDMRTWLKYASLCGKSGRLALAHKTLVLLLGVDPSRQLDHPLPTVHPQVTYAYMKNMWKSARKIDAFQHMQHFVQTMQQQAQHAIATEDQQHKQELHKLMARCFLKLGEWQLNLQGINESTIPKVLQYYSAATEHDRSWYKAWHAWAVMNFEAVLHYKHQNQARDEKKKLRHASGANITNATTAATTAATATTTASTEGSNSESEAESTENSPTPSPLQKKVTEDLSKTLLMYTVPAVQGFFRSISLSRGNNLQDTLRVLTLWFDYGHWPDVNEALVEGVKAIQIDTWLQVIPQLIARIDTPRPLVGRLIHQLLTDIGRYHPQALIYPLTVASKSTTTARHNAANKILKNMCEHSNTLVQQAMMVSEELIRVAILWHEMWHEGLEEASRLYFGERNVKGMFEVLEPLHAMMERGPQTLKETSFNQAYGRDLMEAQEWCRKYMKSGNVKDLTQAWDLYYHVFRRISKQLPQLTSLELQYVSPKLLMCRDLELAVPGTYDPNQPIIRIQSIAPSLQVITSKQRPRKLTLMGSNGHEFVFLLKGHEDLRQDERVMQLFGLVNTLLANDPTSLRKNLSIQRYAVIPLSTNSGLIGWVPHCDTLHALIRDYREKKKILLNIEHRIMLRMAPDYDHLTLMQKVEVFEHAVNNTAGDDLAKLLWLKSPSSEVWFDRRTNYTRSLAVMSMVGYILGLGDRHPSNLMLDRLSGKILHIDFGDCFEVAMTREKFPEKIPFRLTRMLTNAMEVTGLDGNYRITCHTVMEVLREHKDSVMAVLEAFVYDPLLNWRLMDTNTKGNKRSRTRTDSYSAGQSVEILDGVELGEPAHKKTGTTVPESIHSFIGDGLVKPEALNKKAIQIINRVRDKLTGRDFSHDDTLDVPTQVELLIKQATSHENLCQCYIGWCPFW

Row | Structure (SMILES) | IC50 (mTOR) [nM] | IC50 [1] [nM]
1 | Cc1cc(-n2c(=O)n(C)c3cnc4ccc(-c5cnc(F)c(N)c5)cc4c32)n(C)n1 [Example 149.3, 8-(5-Amino-6-fluoro-pyridin-3-yl)-1-(2,5-dimethyl-2H-pyrazol-3-yl)-3-methyl-1,3-dihydro-imidazo[4,5-c]quinolin-2-one] | 210 | 6.94
2 | CCOCc1cc(-c2ccc3ncc4c(c3c2)n(-c2cn(C(C)C)nc2C)c(=O)n4C)cnc1N [Example 166.3, 8-(6-Amino-5-ethoxymethyl-pyridin-3-yl)-1-(1-isopropyl-3-methyl-1H-pyrazol-4-yl)-3-methyl-1,3-dihydro-imidazo[4,5-c]quinolin-2-one] | 55 | 5
3 | CCN(CC)c1cncc(-c2ccc3ncc4c(c3c2)n(-c2cn(C)nc2C)c(=O)n4C)c1 [Example 95, 8-(5-Diethylamino-pyridin-3-yl)-1-(1,3-dimethyl-1H-pyrazol-4-yl)-3-methyl-1,3-dihydro-imidazo[4,5-c]quinolin-2-one] | 20 | 1
4 | CNc1ncc(-c2ccc3ncc4c(c3c2)n(-c2cn(C)nc2Cl)c(=O)n4C)cc1C [Example 119, 1-(3-Chloro-1-methyl-1H-pyrazol-4-yl)-3-methyl-8-(5-methyl-6-methylamino-pyridin-3-yl)-1,3-dihydro-imidazo[4,5-c]quinolin-2-one] | < 3 | 1
5 | CCOCc1cc(-c2ccc3ncc4c(c3c2)n(-c2cn(C)nc2Cl)c(=O)n4C)cnc1N [Example 166.4, 8-(6-Amino-5-ethoxymethyl-pyridin-3-yl)-1-(3-chloro-1-methyl-1H-pyrazol-4-yl)-3-methyl-1,3-dihydro-imidazo[4,5-c]quinolin-2-one] | 16 | 1
6 | Cc1nn(C)cc1-n1c(=O)n(C)c2cnc3ccc(-c4cncc(OC5CCC5)c4)cc3c21 [Example 60.1, 8-(5-Cyclobutoxy-pyridin-3-yl)-1-(1,3-dimethyl-1H-pyrazol-4-yl)-3-methyl-1,3-dihydro-imidazo[4,5-c]quinolin-2-one] | 5 | 1
7 | Cc1nn(C)cc1-n1c(=O)n(C)c2cnc3ccc(-c4cnc(N)c(C(F)(F)F)c4)cc3c21 [Example 25.1, 8-(6-Amino-5-trifluoromethyl-pyridin-3-yl)-1-(1,3-dimethyl-1H-pyrazol-4-yl)-3-methyl-1,3-dihydro-imidazo[4,5-c]quinolin-2-one] | 9 | 1
8 | Cc1cc(-n2c(=O)n(C)c3cnc4ccc(-c5cnc(N)c(C(F)(F)F)c5)cc4c32)n(C)n1 [Example 25.6, 8-(6-Amino-5-trifluoromethyl-pyridin-3-yl)-1-(2,5-dimethyl-2H-pyrazol-3-yl)-3-methyl-1,3-dihydro-imidazo[4,5-c]quinolin-2-one] | 82 | 1
9 | CCn1cc(-n2c(=O)n(C)c3cnc4ccc(-c5cnc(N)c(Cl)c5)cc4c32)c(C)n1 [Example 148.3, 8-(6-Amino-5-chloro-pyridin-3-yl)-1-(1-ethyl-3-methyl-1H-pyrazol-4-yl)-3-methyl-1,3-dihydro-imidazo[4,5-c]quinolin-2-one] | 12 | 1
10 | Cc1nn(C)c(C)c1-n1c(=O)n(C)c2cnc3ccc(-c4cnc(Cl)c(N)c4)cc3c21 [Example 152.3, 8-(5-Amino-6-chloro-pyridin-3-yl)-3-methyl-1-(1,3,5-trimethyl-1H-pyrazol-4-yl)-1,3-dihydro-imidazo[4,5-c]quinolin-2-one] | 189 | 20
11 | CCNc1ncc(-c2ccc3ncc4c(c3c2)n(-c2cn(C)nc2C)c(=O)n4C)cc1C(F)(F)F [Example 145.2, 1-(1,3-Dimethyl-1H-pyrazol-4-yl)-8-(6-ethylamino-5-trifluoromethyl-pyridin-3-yl)-3-methyl-1,3-dihydro-imidazo[4,5-c]quinolin-2-one] | 16 | 0.94
12 | CC(C)Oc1cncc(-c2ccc3ncc4c(c3c2)n(-c2cn(C)nc2Cl)c(=O)n4C)c1 [Example 58.2, 1-(3-Chloro-1-methyl-1H-pyrazol-4-yl)-8-(5-isopropoxy-pyridin-3-yl)-3-methyl-1,3-dihydro-imidazo[4,5-c]quinolin-2-one] | 3 | 4
13 | Cc1nn(C(C)C)cc1-n1c(=O)n(C)c2cnc3ccc(-c4cnc(Cl)c(N)c4)cc3c21 [Example 152.1, 8-(5-Amino-6-chloro-pyridin-3-yl)-1-(1-isopropyl-3-methyl-1H-pyrazol-4-yl)-3-methyl-1,3-dihydro-imidazo[4,5-c]quinolin-2-one] | 13 | 2
14 | CN(C)c1ncc(-c2ccc3ncc4c(c3c2)n(-c2cn(C)nc2Cl)c(=O)n4C)cn1 [Example 6.3, 1-(3-Chloro-1-methyl-1H-pyrazol-4-yl)-8-(2-dimethylamino-pyrimidin-5-yl)-3-methyl-1,3-dihydro-imidazo[4,5-c]quinolin-2-one] | 5 | 8
15 | Cc1nn(C)cc1-n1c(=O)n(C)c2cnc3ccc(-c4ccc(N5CCCC5)nc4)cc3c21 [Example 97, 1-(1,3-Dimethyl-1H-pyrazol-4-yl)-3-methyl-8-(6-pyrrolidin-1-yl-pyridin-3-yl)-1,3-dihydro-imidazo[4,5-c]quinolin-2-one] | 7 | 3
16 | CNc1ncc(-c2ccc3ncc4c(c3c2)n(-c2cn(C(C)C)nc2C)c(=O)n4C)cc1C(F)(F)F [Example 144.2, 1-(1-Isopropyl-3-methyl-1H-pyrazol-4-yl)-3-methyl-8-(6-methylamino-5-trifluoromethyl-pyridin-3-yl)-1,3-dihydro-imidazo[4,5-c]quinolin-2-one] | < 3 | 1
17 | Cc1nn(C)cc1-n1c(=O)n(C)c2cnc3ccc(-c4cccc(OC(C)C)c4)cc3c21 [Example 82, 1-(1,3-Dimethyl-1H-pyrazol-4-yl)-8-(3-isopropoxy-phenyl)-3-methyl-1,3-dihydro-imidazo[4,5-c]quinolin-2-one] | 27 | 17

Further lines, with some results ahead:

Row | IC50 (mTOR) [nM] | Structure (SMILES) | IC50 [1] [nM]
18 | 73 | [2H]C([2H])([2H])OCc1ncc(-c2ccc3ncc4c(c3c2)n(-c2cn(C)nc2C)c(=O)n4C)cc1OCC [Example 198, 1-(1,3-Dimethyl-1H-pyrazol-4-yl)-8-(5-ethoxy-6-trideuteromethoxymethyl-pyridin-3-yl)-3-methyl-1,3-dihydro-imidazo[4,5-c]quinolin-2-one] | 3
19 | 187 | COc1ncc(-c2ccc3ncc4c(c3c2)n(-c2cc(C)nn2C)c(=O)n4C)c(OC)n1 [Example 234.4, 8-(2,4-Dimethoxy-pyrimidin-5-yl)-1-(2,5-dimethyl-2H-pyrazol-3-yl)-3-methyl-1,3-dihydro-imidazo[4,5-c]quinolin-2-one] | 10.1
20 | 7 | Cc1nn(C)cc1-n1c(=O)n(C)c2cnc3ccc(-c4cncc(N(C)C5CCC5)c4)cc3c21 [Example 174, 8-[5-(Cyclobutyl-methyl-amino)-pyridin-3-yl]-1-(1,3-dimethyl-1H-pyrazol-4-yl)-3-methyl-1,3-dihydro-imidazo[4,5-c]quinolin-2-one] | 3
21 | 19 | Cc1cc(-n2c(=O)n(C)c3cnc4ccc(-c5cnc(C)c(O)c5)cc4c32)n(C)n1 [Example 185.2, 1-(2,5-Dimethyl-2H-pyrazol-3-yl)-8-(5-hydroxy-6-methyl-pyridin-3-yl)-3-methyl-1,3-dihydro-imidazo[4,5-c]quinolin-2-one] | 32
22 | 32 | CCn1cc(-n2c(=O)n(C)c3cnc4ccc(-c5cncc(C(C)(C)C#N)c5)cc4c32)c(C)n1 [Example 220.2, 2-{5-[1-(1-Ethyl-3-methyl-1H-pyrazol-4-yl)-3-methyl-2-oxo-2,3-dihydro-1H-imidazo[4,5-c]quinolin-8-yl]-pyridin-3-yl}-2-methyl-propionitrile] | 3
23 | 161 | CCNC(=O)c1cc(-c2ccc3ncc4c(c3c2)n(-c2cn(C(C)C)nc2C)c(=O)n4C)cnc1N [Example 227, 2-Amino-N-ethyl-5-[1-(1-isopropyl-3-methyl-1H-pyrazol-4-yl)-3-methyl-2-oxo-2,3-dihydro-1H-imidazo[4,5-c]quinolin-8-yl]-nicotinamide] | 12
24 | 1820 | Cc1nn(C(C)C)cc1-n1c(=O)n(C)c2cnc3ccc(-c4cnc5c(c4)COC(=O)N5C)cc3c21 [Example 170, 1-(1-Isopropyl-3-methyl-1H-pyrazol-4-yl)-3-methyl-8-(1-methyl-2-oxo-1,4-dihydro-2H-pyrido[2,3-d][1,3]oxazin-6-yl)-1,3-dihydro-imidazo[4,5-c]quinolin-2-one] | 79
25 | 79 | CNc1ccc(-c2ccc3ncc4c(c3c2)n(-c2cn(C(C)C)nc2C)c(=S)n4C)cn1 [Example 241, 1-(1-isopropyl-3-methyl-1H-pyrazol-4-yl)-3-methyl-8-(6-(methylamino)pyridin-3-yl)-1H-imidazo[4,5-c]quinoline-2(3H)-thione] | < 0.5
